Patent US11065240B2, “Drug combinations to treat multiple myeloma” (Exelixis, Inc., priority 2014, dated 2021)

Experiments:
[1] = system: 5TGM1 mouse myeloma cells; experiment: 5TGM1 murine multiple myeloma model, study 1: bone lesions and tumor burden; assay type: in vivo; conditions: for bone protective properties/effects: cabozantinib 10 or 30 mg/kg PO QD; for frequency of soft tissue lesions: cabozantinib both doses (10 and 30 mg/kg PO QD)
Experimental: Cabozantinib (XL184) is obtained from the Exelixis in powder form. It is dissolved in sterile water to a concentration of 1 mg/ml for dosing at 10 mg/kg or 30 mg/kg. The dosing solution is prepared daily within one hour before dosing. The undissolved test compound will be stored at ambient or room temperature in a dry environment such as in a dessicator. The test compound is administered daily by oral gavage. Bortezomib is obtained from LC Laboratories (Boston, Mass., USA) in powder form and dissolved in EtOH. The stock solution is stored at -20° C. The bortezomib dosing solutions are prepared fresh for every dosing as follows: 25 μl of the stock solution of 25 mg/ml of bortezomib (LC Laboratories, Boston, Mass., USA) in EtOH and 25 μl of EtOH is diluted in 3.61 ml of 0.9% NaCl to obtain the concentration of 0.17 mg/ml. The dosing volume is 3 ml/kg, resulting in the dose 0.5 mg/kg. Bortezomib is administered intraperitoneally twice a week. 5TGM1 mouse multiple myeloma cells are obtained from the Department of Molecular Medicine, University of Texas Health Science Center at San Antonio. Cell culturing is performed according to standard procedures. 5TGM1 mouse myeloma cells (2×10^6 cells in 0.1 ml of PBS) are inoculated into the tail vein of the mice at day 0. Viability of the cells will be determined before and after the inoculations. Cancer cell inoculation will cause the mice to develop a bone disease typical for multiple myeloma. Blood samples will be collected from the saphenous vein before the inoculation of cancer cells, at days 15, 22, 35 and at sacrifice. The serum samples will be prepared within one hour of sampling, and stored at -70° C. Serum paraprotein IgG2b will be analyzed using mouse IgG2b ELISA quantitation kit (Bethyl Laboratories Inc, Montgomery, Tex., USA). Serum […] activity and PINP concentration will be analyzed using Mouse TRAP and Mouse PINP kits (IDS, Boldon, UK). The development of the myeloma bone disease is monitored by x-ray radiography at day 35. Animals will be anesthethized by isoflurane and x-rayed in a prone position with the Faxitron Specimen Radiographic System MX-20 D12 (Faxitron Corp. Illinois, USA) using Faxitron Dicom 3.0-software. At least one radiograph (both hind limbs) per animal will be taken on each x-ray occasion (31 kV, 10 seconds, magnification 2×). The lesion number and lesion area in hind limbs will be determined from the images with MetaMorph image analysis software. Statistical analysis will be performed with statistical software R (version 2.14.0 or newer, www.r-project.org) or OriginPro (version 8.6 or newer, OriginLab, Northampton, Mass., USA). The mean and standard deviation of each parameter will be determined. All statistical analyses will be performed as two-sided tests. Normal distribution and homogeneity of variance will be checked before further analyses. In case of violating these assumptions, either log transformation or other appropriate transformation (e.g. square root, reciprocal) will be applied. If the assumptions are fulfilled as such or after transformation, Oneway ANOVA will be used for end-point parameters to assess whether the values obtained between groups are statistically different (with p<0.05) followed by Tukey test for comparison against the control group. If the assumptions are not fulfilled even after the transformations described above, rank-transformation will be applied and the non-parametric Kruskal-Wallis test followed by Mann-Whitney U-test will be used. Linear mixed effects model will be used for repeated measurements like biochemical markers. Female C57BL/KaLwRij mice were allocated to treatment groups (n=15 per group) with equivalent average body weights. Four experimental groups were utilized in each of 2 studies: a vehicle control group, and groups receiving single agent bortezomib (0.5 mg/kg ip twice a week) or cabozantinib (10 mg/kg, PO QD). […]

[2] = system: 5TGM1 mouse myeloma cells; experiment: 5TGM1 murine multiple myeloma model, study 2: overall survival, alone or in combination; assay type: in vivo; conditions: for prolongation of overall survival (OS) compared to vehicle, statistical significance / median survival time: bortezomib 0.5 mg/kg ip twice a week, cabozantinib 10 mg/kg PO QD; for median survival time: vehicle 36 d, FIG. 1
Experimental: Cabozantinib (XL184) is obtained from the Exelixis in powder form. It is dissolved in sterile water to a concentration of 1 mg/ml for dosing at 10 mg/kg or 30 mg/kg. The dosing solution is prepared daily within one hour before dosing. The undissolved test compound will be stored at ambient or room temperature in a dry environment such as in a dessicator. The test compound is administered daily by oral gavage.
Bortezomib is obtained from LC Laboratories (Boston, Mass., USA) in powder form and dissolved in EtOH. The stock solution is stored at −20° C. The bortezomib dosing solutions are prepared fresh for every dosing as follows: 25 μl of the stock solution of 25 mg/ml of bortezomib (LC Laboratories, Boston, Mass., USA) in EtOH and 25 μl of EtOH is diluted in 3.61 ml of 0.9% NaCl to obtain the concentration of 0.17 mg/ml. The dosing volume is 3 ml/kg, resulting in the dose 0.5 mg/kg. Bortezomib is administered intraperitoneally twice a week.
5TGM1 mouse multiple myeloma cells are obtained from the Department of Molecular Medicine, University of Texas Health Science Center at San Antonio. Cell culturing is performed according to standard procedures. 5TGM1 mouse myeloma cells (2×10^6 cells in 0.1 ml of PBS) are inoculated into the tail vein of the mice at day 0. Viability of the cells will be determined before and after the inoculations. Cancer cell inoculation will cause the mice to develop a bone disease typical for multiple myeloma.
Statistical analysis will be performed with statistical software R (version 2.14.0 or newer, www.r-project.org) or OriginPro (version 8.6 or newer, OriginLab, Northampton, Mass., USA). The mean and standard deviation of each parameter will be determined. All statistical analyses will be performed as two-sided tests. Normal distribution and homogeneity of variance will be checked before further analyses. In case of violating these assumptions, either log transformation or other appropriate transformation (e.g. square root, reciprocal) will be applied. If the assumptions are fulfilled as such or after transformation, Oneway ANOVA will be used for end-point parameters to assess whether the values obtained between groups are statistically different (with p<0.05) followed by Tukey test for comparison against the control group. If the assumptions are not fulfilled even after the transformations described above, rank-transformation will be applied and the non-parametric Kruskal-Wallis test followed by Mann-Whitney U-test will be used. Linear mixed effects model will be used for repeated measurements like biochemical markers.
Female C57BL/KaLwRij mice were allocated to treatment groups (n=15 per group) with equivalent average body weights. Four experimental groups were utilized in each of 2 studies: a vehicle control group, and groups receiving single agent bortezomib (0.5 mg/kg ip twice a week) or cabozantinib (10 mg/kg, PO QD). Study 1 also included a higher dose cabozantinib group (30 mg/kg, PO QD), and study 2 included a combination group: bortezomib (0.5 mg/kg ip twice a week) plus cabozantinib (10 mg/kg, PO QD). […]
On day 0, animals were inoculated with 5TGM1 mouse myeloma cells by IV administration. […] Body weights were determined twice a week and blood samples were collected on days—1, 15, 22, and 34 for analysis of paraprotein (IgG2b) and TRACP 5b. In study 1 the development of osteolytic lesions was detected by radiography at the end of the study. […]

[3] = study 1, bortezomib 0.5 mg/kg ip twice a week
[4] = study 1, 30 mg/kg PO QD, radiography at end of study
[5] = study 1, both the 10 and 30 mg/kg doses PO QD

SMILES | bone protective properties/effects [1, 3] | frequency of soft tissue lesions [1, 3] | serum IgG2b levels ([1]; study 1, female C57BL/KaLwRij mice, bortezomib 0.5 mg/kg ip twice a week, vs vehicle) | prolongation of overall survival (OS) compared to vehicle, statistical significance [2] | median survival time [2] [days] | bone-protective and anti-tumor effects (conclusion) ([1]; murine model of MM, conclusions) | mean area of osteolytic lesions [1, 4] | total area of osteolytic lesions [1, 4] | necrotic tumor area in bone ([1]; study 1, 10 and 30 mg/kg PO QD) | start of the rise in serum IgG2b ([1]; study 1, both cabozantinib-treated groups (10 and 30 mg/kg), vs vehicle control) | relative IgG2b at sacrifice ([1]; study 1, both cabozantinib-treated groups, vs vehicle control) | osteoclast counts at the tumor-bone interface [1, 5] | serum TRACP 5b values [1, 5] | relative bone area ([1]; study 1, histomorphometry, vs control) | prolongation of overall survival (conclusion, comparator not stated) ([2]; conclusions)
CC(C)C[C@H](NC(=O)[C@H](Cc1ccccc1)NC(=O)c1cnccn1)B(O)O [bortezomib, reference compound] | did not show bone protective properties | decreased | reduced | not | 43 |  |  |  |  |  |  |  |  |  | 
COc1cc2nccc(Oc3ccc(NC(=O)C4(C(=O)Nc5ccc(F)cc5)CC4)cc3)c2cc1OC [cabozantinib, N-(4-{[6,7-bis(methyloxy)quinolin-4-yl]oxy}phenyl)-N′-(4-fluorophenyl)cyclopropane-1,1-dicarboxamide] | exhibited bone protective effects | decreased |  | statistically significant | 48 | showed both bone-protective and anti-tumor effects | reduced | reduced | dose dependently increased | started earlier than vehicle control | a significant difference was not observed | reduced | reduced | did not differ from control | statistically-significant prolongation
